The target of test [1] is T1, human CD73 (Homo sapiens, UniProt P21589).
T1 construct: expressed in transfected cells
T1 sequence (P21589 27-549): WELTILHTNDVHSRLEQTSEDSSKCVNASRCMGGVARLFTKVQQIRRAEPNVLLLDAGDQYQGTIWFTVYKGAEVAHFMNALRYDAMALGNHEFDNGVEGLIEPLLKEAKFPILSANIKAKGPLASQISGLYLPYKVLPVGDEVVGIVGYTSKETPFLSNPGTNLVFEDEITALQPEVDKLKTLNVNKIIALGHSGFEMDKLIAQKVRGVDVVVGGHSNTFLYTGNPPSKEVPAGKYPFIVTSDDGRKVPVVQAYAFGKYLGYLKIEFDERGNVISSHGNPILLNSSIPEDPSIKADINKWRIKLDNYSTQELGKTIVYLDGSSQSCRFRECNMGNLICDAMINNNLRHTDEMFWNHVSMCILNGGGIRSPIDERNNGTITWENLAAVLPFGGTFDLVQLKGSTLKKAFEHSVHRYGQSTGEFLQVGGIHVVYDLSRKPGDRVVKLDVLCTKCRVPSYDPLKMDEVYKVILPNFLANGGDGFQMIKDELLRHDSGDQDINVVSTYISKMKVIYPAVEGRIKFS
Kind of test: Inhibitor activity against CD73 in cell based assay (CD73 expressing CHO-K1 cells). Particulars: CHO-K1 cells expressing human CD73, 150 μM AMP, 4 hours of incubation; read-out: CHO-K1 CELL_VARIANT: CD73 IC50. In outline:
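Stable human CD73 CHO-K1 cells, 1×10^4/well, exposed to an 8-point 1:3 compound series (top 10 μM, 0.2% DMSO) plus 150 μM AMP for 4 h. Remaining AMP in the supernatant was read by CellTiter-Glo 2.0 luminescence with 1 μM ATP after 30 min at room temperature. IC50 came from nonlinear regression of % inhibition against cell and media-only controls.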

Test [2] deals with T2, Human CD73 (amino acid residues 27-549) (Homo sapiens, UniProt P21589).
T2 construct: Human CD73 (amino acid residues 27-549); His tag (N); made in house; host or cells: E. coli
T2 sequence (P21589 27-549): T1 sequence (P21589 27-549)
Kind of test: CD73 enzymatic assay (luciferase-based indirect assay, CellTiter-Glo). The class given is biochemical. Particulars: 0.4 nM CD73, 150 μM AMP, 1 hour at room temperature. Put shortly:
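N-His human CD73 (27-549) expressed in E. coli, 0.4 nM, incubated with 150 μM AMP and compound in 50 mM HEPES pH 7.4, 0.01% Tween-20, 1 h at RT. Remaining AMP read via CellTiter-Glo luminescence with 1 μM ATP after 30 min; IC50 from nonlinear regression of % inhibition.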
A general note: ATP-based viability assays read luminescence as a measure of living cells.

Among the data in patent US12202818B2, “Compounds and methods for CD73 modulation and indications therefor” (Opna Bio SA, priority 2020, dated 2025) are IC50 values, retold here.

For orientation: IC50 means the concentration at which inhibition is half-maximal.

Take `O=c1[nH]ncc(N2CC[C@@H](Oc3cc(-c4ccc(NS(=O)(=O)C5CC5)cc4)ccn3)C2)c1Cl` [P-0245, (R)-N-(4-(2-((1-(5-chloro-6-oxo-1,6-dihydropyridazin-4-yl)pyrrolidin-3-yl)oxy)pyridin-4-yl)phenyl)cyclopropanesulfon-amide]: the IC50 in test [1] and in test [2] was 0.001 to 10 µM throughout.

For `O=c1[nH]ncc(N2CC[C@@H](Oc3cc(-c4ccc(S(=O)(=O)N5CCCC5)cc4)ccn3)C2)c1Cl` [P-0246, (R)-4-chloro-5-(3-((4-(4-(pyrrolidin-1-ylsulfonyl)phenyl)pyridin-2-yl)oxy)pyrrolidin-1-yl)pyridazin-3(2H)-one], the IC50 in test [1] and in test [2] was 0.001 to 10 µM each time.

In the case of `O=c1[nH]ncc(N2CC[C@@H](Oc3cc(-c4ccc(S(=O)(=O)NC5CC5)cc4)ccn3)C2)c1Cl` [P-0247, (R)-4-(2-((1-(5-chloro-6-oxo-1,6-dihydropyridazin-4-yl)pyrrolidin-3-yl)oxy)pyridin-4-yl)-N-cyclopropylbenzenesulfonamide], the half-inhibitory concentration (IC50) in test [1] and in test [2] was 0.001 to 10 µM throughout.

Take `O=c1[nH]ncc(N2CC[C@@H](Oc3cc(-c4ccc(S(=O)(=O)N5CCCC5)cc4)c(Cl)cn3)C2)c1Cl` [P-0248, (R)-4-chloro-5-(3-((5-chloro-4-(4-(pyrrolidin-1-ylsulfonyl)phenyl)pyridin-2-yl)oxy)pyrrolidin-1-yl)pyridazin-3(2H)-one]: the IC50 in test [1] and in test [2] was 0.001 to 10 µM in each case.

Turning to `O=c1[nH]ncc(N2CC[C@@H](Oc3cc(-c4ccc(S(=O)(=O)N5CCCCC5)cc4)c(Cl)cn3)C2)c1Cl` [P-0249, (R)-4-chloro-5-(3-((5-chloro-4-(4-(piperidin-1-ylsulfonyl)phenyl)pyridin-2-yl)oxy)pyrrolidin-1-yl)pyridazin-3(2H)-one], the IC50 in test [1] and in test [2] was 0.001 to 10 µM throughout.

Take `O=c1[nH]ncc(N2CC[C@@H](Oc3cc(-c4ccc(S(=O)(=O)NC5CC5)cc4)c(Cl)cn3)C2)c1Cl` [P-0251, (R)-4-(5-chloro-2-((1-(5-chloro-6-oxo-1,6-dihydropyridazin-4-yl)pyrrolidin-3-yl)oxy)pyridin-4-yl)-N-cyclopropylbenzenesulfonamide]: the IC50 in test [1] and in test [2] was 0.001 to 10 µM throughout.

For the molecule `O=c1[nH]ncc(N2CC[C@@H](Oc3cc(-n4cccc4)ccn3)C2)c1Cl` [P-0252, (R)-5-(3-((4-(1H-pyrrol-1-yl)pyridin-2-yl)oxy)pyrrolidin-1-yl)-4-chloropyridazin-3(2H)-one], the IC50 in test [1] and in test [2] was 0.001 to 10 µM in each case.

Turning to `N#Cc1cc(O[C@@H]2CCN(c3cn[nH]c(=O)c3Cl)C2)nc(N2CCCC2)c1` [P-0253, (R)-2-((1-(5-chloro-6-oxo-1,6-dihydropyridazin-4-yl)pyrrolidin-3-yl)oxy)-6-(pyrrolidin-1-yl)isonicotinonitrile], the IC50 in test [1] lay within 10 to 100 µM; in test [2], 0.001 to 10 µM.
